Some test systems named below: RPMI-8226 leukemia; SW-620 colon; MCF7 breast; MDA-N; IGROV1 ovarian; HCC-2998 colon; ACHN renal; U251 CNS; RXF 393 renal; LOX IMVI melanoma; OVCAR-5 ovarian; HOP-62 NSCLC; EKVX NSCLC; CCRF-CEM leukemia; SF-295 CNS; SK-MEL-2 melanoma; HOP-92 NSCLC; NCI-H522 lung.
Experiment in all cases: inhibition of tumour cell growth, NCI panel, 48 h

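Cells were grown in 96-well plates and exposed to each compound for 48 hours at five concentrations; endpoints were interpolated linearly between bracketing concentrations, or set to the highest concentration if not reached. TGI is the concentration that stops growth completely.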

Take `CC(=O)OC12c3ccccc3C(c3ccccc31)C1C(=O)N(Nc3ccccc3)C(=O)C12` (stereo unspecified): the TGI with RPMI-8226 leukemia, with SW-620 colon, with MCF7 breast, in the assay with MDA-N, in the assay with IGROV1 ovarian and in the assay on HCC-2998 colon was above 100 µM each time. Further, the TGI with ACHN renal, in the assay on U251 CNS, with RXF 393 renal, in the assay on LOX IMVI melanoma, with OVCAR-5 ovarian and in the assay with HOP-62 NSCLC was above 100 µM in each case. Further, the TGI with EKVX NSCLC, in the assay on CCRF-CEM leukemia and with SF-295 CNS was above 100 µM throughout.
For the molecule `C/C(CC(O)(C(F)(F)Cl)C(F)(F)Cl)=N\Nc1ccccc1`, the TGI with RPMI-8226 leukemia is above 100 µM; with SW-620 colon, above 100 µM; in the assay with MCF7 breast, above 100 µM; with MDA-N, above 100 µM; in the assay with IGROV1 ovarian, above 100 µM; with ACHN renal it was 85.2 µM. Also, the TGI is 89.4 µM in the assay with U251 CNS; 47.6 µM in the assay with RXF 393 renal; 79.7 µM in the assay on SK-MEL-2 melanoma; above 100 µM with LOX IMVI melanoma; 69.6 µM with HOP-92 NSCLC; above 100 µM in the assay on OVCAR-5 ovarian. Also, the TGI in the assay on NCI-H522 lung was above 100 µM; with EKVX NSCLC it was 93.8 µM; in the assay with CCRF-CEM leukemia, above 100 µM; with SF-295 CNS, above 100 µM.
`C=CC[C@H](O)[C@@](NC(=O)OCc1ccccc1)(Sc1ccc(C)cc1)C(F)(F)F`: the TGI in the assay with RPMI-8226 leukemia was 71.6 µM; with SW-620 colon, above 100 µM; in the assay with MCF7 breast, above 100 µM; in the assay with MDA-N, 46.6 µM; in the assay on IGROV1 ovarian, 24 µM; in the assay on HCC-2998 colon it was above 100 µM. The TGI in the assay with ACHN renal is above 100 µM; in the assay on U251 CNS, 28.4 µM; in the assay on RXF 393 renal, 53 µM; in the assay with SK-MEL-2 melanoma, 75.8 µM; in the assay with LOX IMVI melanoma, 16.9 µM; with HOP-92 NSCLC, above 100 µM. Besides, the TGI in the assay with OVCAR-5 ovarian is 75.4 µM; in the assay with HOP-62 NSCLC it was 78.1 µM; with NCI-H522 lung, 32.4 µM; in the assay on EKVX NSCLC it was above 100 µM; in the assay with SF-295 CNS, 66.7 µM.
Take `COc1ccc2cc(NC(=O)Nn3cnnc3)ccc2c1`: the TGI with RPMI-8226 leukemia, in the assay on SW-620 colon, in the assay with MCF7 breast, in the assay with MDA-N, in the assay on IGROV1 ovarian and in the assay with HCC-2998 colon was above 100 µM each time. In addition, the TGI with ACHN renal, in the assay on U251 CNS, in the assay on SK-MEL-2 melanoma, with LOX IMVI melanoma, with HOP-92 NSCLC and in the assay with OVCAR-5 ovarian was above 100 µM each time. The TGI in the assay on HOP-62 NSCLC, with NCI-H522 lung, with EKVX NSCLC, in the assay with CCRF-CEM leukemia and in the assay with SF-295 CNS was above 100 µM each time.
For the molecule `Cn1c(=O)oc2cc(C(=O)CN3CCN(Cc4ccc5c(c4)OCO5)CC3)c(Cl)cc21`, the TGI in the assay with RPMI-8226 leukemia, in the assay on MCF7 breast, in the assay on MDA-N, in the assay on IGROV1 ovarian, in the assay on HCC-2998 colon and in the assay on ACHN renal was above 100 µM in each case. The TGI in the assay with U251 CNS, with RXF 393 renal, in the assay on SK-MEL-2 melanoma, in the assay on LOX IMVI melanoma, in the assay on OVCAR-5 ovarian and in the assay on HOP-62 NSCLC was above 100 µM throughout. Also, the TGI in the assay on CCRF-CEM leukemia and in the assay with SF-295 CNS was above 100 µM throughout.
On to `N#Cc1nc(/C=C/c2cccs2)oc1N`, for which the TGI in the assay on RPMI-8226 leukemia, with SW-620 colon, in the assay with MCF7 breast, in the assay with MDA-N, in the assay with IGROV1 ovarian and with ACHN renal was above 100 µM each time. For the same molecule, the TGI in the assay on U251 CNS, in the assay on RXF 393 renal, in the assay with SK-MEL-2 melanoma, with LOX IMVI melanoma, in the assay on HOP-92 NSCLC and in the assay on OVCAR-5 ovarian was above 100 µM throughout. The TGI with HOP-62 NSCLC, in the assay on EKVX NSCLC and in the assay on CCRF-CEM leukemia was above 100 µM each time.
With `Cc1cc(N(C)C)ccc1N=Nc1ccc2ncccc2c1`, the TGI in the assay on RPMI-8226 leukemia, in the assay with SW-620 colon, in the assay on MCF7 breast, in the assay with MDA-N, in the assay on IGROV1 ovarian and in the assay on ACHN renal was above 100 µM each time. The TGI is above 100 µM in the assay on U251 CNS; above 100 µM with RXF 393 renal; above 100 µM in the assay with SK-MEL-2 melanoma; above 100 µM with HOP-92 NSCLC; above 100 µM with OVCAR-5 ovarian; 62.8 µM with NCI-H522 lung. Further, the TGI in the assay on EKVX NSCLC, in the assay on CCRF-CEM leukemia and in the assay on SF-295 CNS was above 100 µM throughout.
`CCN1CCC(O)(/C=C/c2cccc(C)c2)C(C(=O)/C=C/c2cccc(C)c2)C1` (stereo unspecified): the TGI in the assay on RPMI-8226 leukemia is 4.78 µM; in the assay with SW-620 colon, 7.38 µM; with MCF7 breast, 6.44 µM; in the assay on MDA-N, 8.67 µM; in the assay with IGROV1 ovarian, 4.12 µM; in the assay with HCC-2998 colon, 2.96 µM. Also, the TGI in the assay on ACHN renal worked out at 2.93 µM; in the assay on U251 CNS it was 3.31 µM; in the assay on RXF 393 renal it was 3.57 µM; in the assay on SK-MEL-2 melanoma it was 5.56 µM; in the assay with LOX IMVI melanoma it was 5.02 µM; with HOP-92 NSCLC, 7.56 µM. The TGI worked out at 6.98 µM in the assay with OVCAR-5 ovarian, 4.65 µM in the assay with NCI-H522 lung, 4.25 µM with EKVX NSCLC and 4.51 µM in the assay on SF-295 CNS.
As for `Cc1ccc(C)n1-n1c(Cc2ccc(Cl)cc2)n[nH]c1=O`, the TGI with RPMI-8226 leukemia, in the assay on SW-620 colon, with MCF7 breast, with MDA-N, in the assay on IGROV1 ovarian and in the assay with ACHN renal was above 100 µM in each case. Also, the TGI in the assay on U251 CNS, in the assay with RXF 393 renal, in the assay with SK-MEL-2 melanoma, in the assay on LOX IMVI melanoma, in the assay on OVCAR-5 ovarian and with HOP-62 NSCLC was above 100 µM in each case. Besides, the TGI with NCI-H522 lung, in the assay on EKVX NSCLC, with CCRF-CEM leukemia and in the assay with SF-295 CNS was above 100 µM throughout.

Values taken from PubChem BioAssay (NCI).
